Laboratory results published in patent US20190248768A1, “METHOD FOR PURIFYING BENZOPYRAN DERIVATIVE, CRYSTAL FORM THEREOF, AND METHOD FOR PREPARING CRYSTAL FORM” (priority 2015, published 2019).

Assays:
Assay type in all cases: physicochemical
Thermal stability test = conditions: 100° C.
Protocol: (§1) In the following examples and experimental examples, the high performance liquid chromatography (HPLC) analyses were carried out under the following conditions: • Analytical column: C18, 4.6×250 mm, 5 μm • Mobile phase: buffer solution/acetonitrile=40/60 (v/v) • Buffer solution: ammonium formate (0.657 g) was taken and then added to a 1 L volumetric flask. Water was added thereto to the mark so as to dissolve ammonium formate and then the pH of the resulting solution was adjusted to pH 5.5±0.2 with a diluted formic acid. • Wavelength: 254 nm • Column temperature: 30° C. • Flow rate: 1.0 mL/min. • Injection volume: 10 μL
(§2) The X-ray powder diffraction (XRPD) analyses were carried out with the PANalytical's X-pert Pro X-ray powder diffractometer. The measurements at the angles ranging from 3 to 80°2θ values were performed at a scanning rate of 3° per second, using CuKα1 radiation (λα1=1.54060 Å) produced at the conditions of 40 mA and 40 kV.
The crystalline form A of the compound of Formula 1 obtained in Example 1 and the amorphous form of the compound of Formula 1 obtained in Preparation Example were stored at the heat-condition (100° C.) for 2 weeks, so as to evaluate the stabilities thereof.

[1] = Accelerated stability test
Protocol: as §1, §2
The crystalline form A of the compound of Formula 1 obtained in Example 1 and the amorphous form of the compound of Formula 1 obtained in Preparation Example were stored at the accelerated condition (40° C., 75% RH) for 2 weeks, so as to evaluate the stabilities thereof.

[2] = Stability test on humidity
Protocol: as §1, §2
The crystalline form A of the compound of Formula 1 obtained in Example 1 and the amorphous form of the compound of Formula 1 obtained in Preparation Example were stored at the humid condition (25° C., 98% RH) for 2 weeks, so as to evaluate the stabilities thereof.

Structure (SMILES)	Purity (as an anhydrous form) (Thermal stability test; 2 weeks)	Water contents (Thermal stability test; 2 weeks)	Purity (as an anhydrous form) (Thermal stability test; Initial)	Water contents (Thermal stability test; Initial)	change in the appearance (Thermal stability test; during 2 weeks)	enantiomer during the test period (Thermal stability test; during 2 weeks)	Water contents ([1]; 40° C., 75% RH, 1 week)	Purity (as an anhydrous form) ([1]; 40° C., 75% RH, 2 weeks)	Water contents ([1]; 40° C., 75% RH, 2 weeks)	Water contents ([1]; 40° C., 75% RH, 1 day)	Water contents ([1]; 40° C., 75% RH, 2 days)	Purity (as an anhydrous form) ([1]; 40° C., 75% RH, Initial)	Water contents ([1]; 40° C., 75% RH, Initial)	Water contents ([2]; 25° C., 98% RH, 1 week)	Purity (as an anhydrous form) ([2]; 25° C., 98% RH, 2 weeks)	Water contents ([2]; 25° C., 98% RH, 2 weeks)	Water contents ([2]; 25° C., 98% RH, 1 day)	Water contents ([2]; 25° C., 98% RH, 2 days)	Purity (as an anhydrous form) ([2]; 25° C., 98% RH, Initial)	Water contents ([2]; 25° C., 98% RH, Initial)	other results
COC(OC)[C@]1(C)Oc2ccc(N)cc2[C@H](N(Cc2ncc[nH]2)c2ccc(Cl)cc2)[C@H]1O [crystalline form A of the compound of Formula 1] [(2R,3R,4S)-6-amino-4-[N-(4-chlorophenyl)-N-(1H-imidazol-2-ylmethyl)amino]-3-hydroxy-2-methyl-2-dimethoxymethyl-3,4-dihydro-2H-1-benzopyran]	99.25%	0.11%	99.43%	0.16%	changed to pale yellow color from the first week	no enantiomer was detected	0.17%	99.34%	0.18%	0.18%	0.18%	99.43%	0.16%	0.29%	99.32%	0.27%	0.21%	0.24%	99.43%	0.16%	XRPD analyses, crystalline form maintained (Thermal stability test; during 2 weeks): the same crystalline form A was maintained; XRPD analyses, crystalline form maintained ([1]; 40° C., 75% RH, during 2 weeks): the same crystalline form A was maintained; change in the appearance ([1]; 40° C., 75% RH, during 2 weeks): without any change in the appearance; enantiomer during the test period ([1]; 40° C., 75% RH, during 2 weeks): no enantiomer was detected; XRPD analyses, crystalline form maintained ([2]; 25° C., 98% RH, during 2 weeks): the same crystalline form A was maintained; change in the appearance ([2]; 25° C., 98% RH, during 2 weeks): without any change in the appearance; enantiomer during the test period ([2]; 25° C., 98% RH, during 2 weeks): no enantiomer was detected
COC(OC)[C@]1(C)Oc2ccc(N)cc2[C@H](N(Cc2ncc[nH]2)c2ccc(Cl)cc2)[C@H]1O [amorphous form of the compound of Formula 1] [(2R,3R,4S)-6-amino-4-[N-(4-chlorophenyl)-N-(1H-imidazol-2-ylmethyl)amino]-3-hydroxy-2-methyl-2-dimethoxymethyl-3,4-dihydro-2H-1-benzopyran]	92.34%	0.34%	96.96%	1.05%	changed to brown color from the first day	no enantiomer was detected	2.52%	96.72%	2.60%	2.30%	2.64%	96.96%	1.05%	3.90%	96.55%	3.58%	3.20%	3.60%	96.96%	1.05%	water contents over the storing time ([1]; 40° C., 75% RH, during 2 weeks): up to 2.64%; hygroscopicity ([1]; accelerated condition (40° C., 75% RH)): very high hygroscopicity; Water contents ([1]; accelerated condition, in 1 day): 2.30 wt/wt %; enantiomer during the test period ([2]; 25° C., 98% RH, during 2 weeks): no enantiomer was detected; water contents over the storing time ([2]; 25° C., 98% RH, during 2 weeks): up to 3.90%; hygroscopicity ([2]; humid condition (25° C., 98% RH)): very high hygroscopicity
